Measurements: BindingDB's records for doi:10.1021/cb900218c (Case Western Reserve University, 2010)

Legend:
Assay in all cases: colorimetric ATPase assay
[1] = target: T1, Sliding-clamp-loader large/small subunit (Enterobacteria phage T4, UniProt P04526+P04527); details: pH 7.5; 25 °C
T1 sequence (P04526 whole entry): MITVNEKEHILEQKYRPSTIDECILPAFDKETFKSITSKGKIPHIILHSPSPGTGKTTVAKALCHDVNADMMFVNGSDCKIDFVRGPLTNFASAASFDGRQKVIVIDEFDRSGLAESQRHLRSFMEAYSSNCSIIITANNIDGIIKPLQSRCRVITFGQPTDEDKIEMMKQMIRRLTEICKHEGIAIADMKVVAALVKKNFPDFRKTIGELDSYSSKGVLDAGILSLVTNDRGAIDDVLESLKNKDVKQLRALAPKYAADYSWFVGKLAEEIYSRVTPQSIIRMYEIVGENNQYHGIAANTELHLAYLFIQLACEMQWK
T1 sequence (P04527 whole entry): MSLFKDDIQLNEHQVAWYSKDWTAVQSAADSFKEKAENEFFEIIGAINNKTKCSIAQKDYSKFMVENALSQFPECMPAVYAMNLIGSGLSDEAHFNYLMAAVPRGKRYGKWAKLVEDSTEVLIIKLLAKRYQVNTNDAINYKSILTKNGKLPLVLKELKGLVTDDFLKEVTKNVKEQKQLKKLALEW
Procedure: (§1) ATPase assay contained 10 mM Mg2+, 1uM 13/20 DNA, 500uM (r)NTP or (d)NTP, 500 nM gp45, and 500 nM gp44/62 in T4 buffer. ATPase activity was measured by monitoring the release of Pi using a malachite green assay (31) or via the hydrolysis of [gamma-32P]-ATP.

[2] = target: Complex of Sliding-clamp-loader large subunit [R175L] and Sliding-clamp-loader small subunit (Enterobacteria phage T4, UniProt P04526, R175L); details: pH 7.5; 25 °C
Procedure: as §1

[3] = target: Complex of Sliding-clamp-loader large subunit [R175K] and Sliding-clamp-loader small subunit (Enterobacteria phage T4, UniProt P04526, R175K); details: pH 7.5; 25 °C
Procedure: as §1

[4] = target: DNA polymerase III subunit tau (Escherichia coli, UniProt P06710); details: pH 7.5; 37 °C
Sequence of DNA polymerase III subunit tau (P06710 whole entry): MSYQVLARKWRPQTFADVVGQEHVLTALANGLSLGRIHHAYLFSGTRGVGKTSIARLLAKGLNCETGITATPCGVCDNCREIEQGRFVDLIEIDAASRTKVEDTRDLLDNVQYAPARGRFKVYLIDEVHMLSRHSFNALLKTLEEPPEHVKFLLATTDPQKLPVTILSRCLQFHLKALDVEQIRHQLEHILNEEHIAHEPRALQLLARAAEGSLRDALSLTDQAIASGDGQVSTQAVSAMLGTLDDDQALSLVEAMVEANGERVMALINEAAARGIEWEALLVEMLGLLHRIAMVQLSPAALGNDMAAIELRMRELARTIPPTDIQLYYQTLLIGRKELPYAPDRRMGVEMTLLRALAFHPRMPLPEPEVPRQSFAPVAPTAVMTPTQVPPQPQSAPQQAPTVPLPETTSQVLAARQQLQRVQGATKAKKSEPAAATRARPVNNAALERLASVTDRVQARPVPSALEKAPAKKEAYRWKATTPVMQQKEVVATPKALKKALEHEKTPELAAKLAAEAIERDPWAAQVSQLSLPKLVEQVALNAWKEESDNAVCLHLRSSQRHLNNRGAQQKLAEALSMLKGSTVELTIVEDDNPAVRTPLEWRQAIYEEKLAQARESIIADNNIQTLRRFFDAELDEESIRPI

Sequence of Complex of Sliding-clamp-loader large subunit [R175L] and Sliding-clamp-loader small subunit (P04526 as listed by the source R175L): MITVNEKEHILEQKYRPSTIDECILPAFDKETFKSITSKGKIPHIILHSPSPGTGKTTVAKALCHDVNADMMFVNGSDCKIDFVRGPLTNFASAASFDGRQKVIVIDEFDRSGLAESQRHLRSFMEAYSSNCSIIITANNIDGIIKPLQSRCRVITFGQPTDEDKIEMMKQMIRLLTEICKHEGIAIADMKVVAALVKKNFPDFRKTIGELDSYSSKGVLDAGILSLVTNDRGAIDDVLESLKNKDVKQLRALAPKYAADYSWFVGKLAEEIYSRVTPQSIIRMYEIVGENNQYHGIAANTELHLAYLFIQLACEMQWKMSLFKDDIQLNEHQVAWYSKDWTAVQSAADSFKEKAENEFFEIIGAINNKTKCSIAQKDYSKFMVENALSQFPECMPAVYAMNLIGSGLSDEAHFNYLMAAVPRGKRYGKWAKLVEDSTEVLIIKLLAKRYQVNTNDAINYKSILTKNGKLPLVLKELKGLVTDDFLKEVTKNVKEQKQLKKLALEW
Sequence of Complex of Sliding-clamp-loader large subunit [R175K] and Sliding-clamp-loader small subunit (P04526 as listed by the source R175K): as the sequence (P04526 as listed by the source R175L) above, with L175K counted along it

Row | SMILES | Ki [1] | Ki [2] | Ki [3] | Ki [4]
1 | O=[N+]([O-])c1ccc2ccn([C@H]3C[C@H](O)[C@@H](COP(=O)(O)OP(=O)(O)OP(=O)(O)O)O3)c2c1 [6-nitro-indolyl-2'-deoxyriboside triphosphate] | 5.1 µM | 5 µM | 9.1 µM | 8.1 µM
2 | Nc1ncnc2c1ncn2C1OC(COP(=O)(O)OP(=O)(O)OP(O)(O)=S)[C@@H](O)[C@H]1O (stereo partly specified) [ATP{gamma}S] | 28.9 µM | 33.2 µM | 14 µM | 13 µM
3 | O=[N+]([O-])c1cccc2c1ccn2[C@H]1C[C@H](O)[C@@H](COP(=O)(O)OP(=O)(O)OP(=O)(O)O)O1 [4-nitro-indolyl-2'-deoxyriboside triphosphate] | 34.2 µM | 41.6 µM | 30.2 µM | 11.1 µM
4 | O=P(O)(O)OP(=O)(O)OP(=O)(O)OC[C@H]1O[C@@H](n2ccc3cc(F)ccc32)C[C@@H]1O [5-fluoro-indolyl-2'-deoxyriboside triphosphate] | > 200 µM |  |  | 34 µM
5 | Nc1ccc2c(ccn2[C@H]2C[C@H](O)[C@@H](COP(=O)(O)OP(=O)(O)OP(=O)(O)O)O2)c1 [5-amino-indolyl-2'-deoxyriboside triphosphate] | > 200 µM |  |  | 45 µM
6 | O=P(O)(O)OP(=O)(O)OP(=O)(O)OC[C@H]1O[C@@H](n2ccc3cc(C4CCCCC4)ccc32)C[C@@H]1O [5-cyclohexyl-indolyl-2'-deoxyriboside triphosphate] | 47.5 µM |  |  | 24 µM
7 | CCc1ccc2c(ccn2[C@H]2C[C@H](O)[C@@H](COP(=O)(O)OP(=O)(O)OP(=O)(O)O)O2)c1 [5-ethyl-indolyl-2'-deoxyriboside triphosphate] | 81.5 µM | 11 µM | 25.2 µM | 9 µM
8 | O=[N+]([O-])c1ccc2c(ccn2[C@H]2C[C@H](O)[C@@H](COP(=O)(O)OP(=O)(O)OP(=O)(O)O)O2)c1 [5-nitro-indolyl-2'-deoxyriboside triphosphate] |  |  |  | 21.7 µM
9 | O=P(O)(O)OP(=O)(O)OP(=O)(O)OC[C@H]1O[C@@H](n2ccc3cc(C4=CCCCC4)ccc32)C[C@@H]1O [5-cyclohexene-indolyl-2'-deoxyriboside triphosphate] | 10 µM |  |  | 11.8 µM
10 | O=P(O)(O)OP(=O)(O)OP(=O)(O)OC[C@H]1O[C@@H](n2ccc3cc(-c4ccccc4)ccc32)C[C@@H]1O [5-phenyl-indolyl-2'-deoxyriboside triphosphate] | 42 µM |  |  | 7.5 µM
11 | C=Cc1ccc2c(ccn2[C@H]2C[C@H](O)[C@@H](COP(=O)(O)OP(=O)(O)OP(=O)(O)O)O2)c1 [5-ethylene-indolyl-2'-deoxyriboside triphosphate] | > 200 µM | 34 µM | 26.2 µM | 30 µM
